Data set [1] in a line: Hydrophobicity by reverse phase HPLC under isocratic conditions. Format: physicochemical. The note with it: isocratic RP-HPLC, pH 7.3; human insulin as reference (k'rel = 1). As to the method:
The void time of the HPLC system, t0, is determined by injecting 5 μl of 0.1 mM NaNO3. Running conditions:
Column: Lichrosorb RP-C18, 5 μm, 4×250 mm
Buffer A: 0.1 M natrium phosphate pH 7.3, 10 vol % CH3CN

Data set [2] concerns the target T1, human insulin receptor (IR-A) (Homo sapiens, UniProt P06213). Kind of data set: Insulin receptor affinity, SPA antibody capture assay (0% HSA). Format: binding. As to conditions: affinity relative to human insulin. How it is done: (§1) The affinity of the acylated insulin analogues of this invention for the human insulin receptor is determined by a SPA assay (Scintillation Proximity Assay) microtiterplate antibody capture assay. […] Reagent mix for a single Packard Optiplate (Packard No. 6005190) is composed of 2.4 μl of a 1:5000 diluted purified recombinant human insulin receptor (either with or without exon 11), an amount of a stock solution of A14Tyr[^125I]-human insulin corresponding to 5000 cpm per 100 μl of reagent mix, 12 μl of a 1:1000 dilution of F12 antibody, 3 ml of SPA-beads and binding buffer to a total of 12 ml. A total of 100 μl reagent mix is then added to each well in the Packard Optiplate and a dilution series of the insulin derivative is made in the Optiplate from appropriate samples. The samples are then incubated for 16 hours while gently shaken. The phases are the then separated by centrifugation for 1 min and the plates counted in a Topcounter. The binding data were fitted using the nonlinear regression algorithm in the GraphPad Prism 2.01 (GraphPad Software, San Diego, Calif.) and affinities are expressed relative (in percentage (%)) to the affinity of human insulin.

Data set [3] addresses T1, human insulin receptor (IR-A). Kind of data set: Insulin receptor affinity, SPA assay with binding buffer containing 4.5% HSA. The note with it: 4.5% HSA in binding buffer; affinity relative to human insulin. As to the method:
as §1

T1 sequence (P06213 28-746 isoform P06213-2 limits assumed): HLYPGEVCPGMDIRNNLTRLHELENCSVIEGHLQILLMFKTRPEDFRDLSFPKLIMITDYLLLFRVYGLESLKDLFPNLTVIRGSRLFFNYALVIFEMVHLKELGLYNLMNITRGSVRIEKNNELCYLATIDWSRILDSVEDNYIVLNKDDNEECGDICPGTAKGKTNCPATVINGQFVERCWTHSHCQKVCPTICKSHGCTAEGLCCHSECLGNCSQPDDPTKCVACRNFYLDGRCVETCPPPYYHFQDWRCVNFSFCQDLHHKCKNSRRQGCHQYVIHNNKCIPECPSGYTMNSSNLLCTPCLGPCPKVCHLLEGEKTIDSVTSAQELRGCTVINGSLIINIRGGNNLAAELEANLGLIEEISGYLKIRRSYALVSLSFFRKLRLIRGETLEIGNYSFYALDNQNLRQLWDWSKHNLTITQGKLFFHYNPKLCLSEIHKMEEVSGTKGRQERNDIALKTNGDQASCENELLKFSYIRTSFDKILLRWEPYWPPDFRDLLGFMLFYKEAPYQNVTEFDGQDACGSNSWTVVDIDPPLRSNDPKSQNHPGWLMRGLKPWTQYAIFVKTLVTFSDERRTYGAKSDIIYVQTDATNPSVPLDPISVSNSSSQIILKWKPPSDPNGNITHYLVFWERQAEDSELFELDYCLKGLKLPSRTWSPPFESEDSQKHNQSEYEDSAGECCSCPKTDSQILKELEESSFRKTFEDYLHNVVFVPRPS
T1 sequence (P06213 763-1382 partner limits assumed): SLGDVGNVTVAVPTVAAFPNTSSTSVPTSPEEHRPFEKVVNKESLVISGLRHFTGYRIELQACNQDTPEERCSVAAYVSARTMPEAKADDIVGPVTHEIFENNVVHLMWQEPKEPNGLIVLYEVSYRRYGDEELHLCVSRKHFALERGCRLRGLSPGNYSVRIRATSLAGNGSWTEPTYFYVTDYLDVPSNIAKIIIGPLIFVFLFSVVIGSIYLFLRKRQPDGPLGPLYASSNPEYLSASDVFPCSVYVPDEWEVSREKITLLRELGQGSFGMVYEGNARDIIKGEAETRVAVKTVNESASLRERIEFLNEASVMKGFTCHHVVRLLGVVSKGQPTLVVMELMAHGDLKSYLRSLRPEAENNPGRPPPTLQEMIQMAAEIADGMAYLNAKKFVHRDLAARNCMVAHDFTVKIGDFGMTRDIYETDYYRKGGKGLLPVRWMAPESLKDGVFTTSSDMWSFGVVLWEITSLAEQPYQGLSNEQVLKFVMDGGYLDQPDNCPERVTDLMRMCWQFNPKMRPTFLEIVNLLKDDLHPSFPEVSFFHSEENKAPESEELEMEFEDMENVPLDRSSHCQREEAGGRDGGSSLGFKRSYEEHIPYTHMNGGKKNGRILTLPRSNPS

In the case of “A14E, B25H, B29K(N^εMyristyl), desB30 Human Insulin [Example 10]”, the “Relative hydrophobicity, k'relderiv” value in data set [1] is 14.60. Also, the “Relative IR-A affinity (@ 0% HSA) (%)” value in data set [2] is 9.5%.
As for “A14E, B25H, B29K(N^εOctadecanedioyl-γGlu-Abu-Abu-Abu-Abu), desB30 Human Insulin [Example 41]”, the “Relative IR-A affinity (@ 0% HSA) (%)” value in data set [2] was 1.6%. The “Relative IR-A affinity (@ 4.5% HSA) (%)” value in data set [3] is on record as “.31%”.
The corresponding values for “A14E, B25H, B29K(N^ε (N-Octadecandioyl-N-carboxymethyl)-beta-alanyl), desB30 Human Insulin [Example 6]” are 2.6% and “.04%”.
With “A14E, B25H, B29K(N^ε(5-Eicosanedioylaminoisophthalic acid)), desB30 Human Insulin [Example 47]”, the “Relative IR-A affinity (@ 0% HSA) (%)” value in data set [2] came out at 1.2%. The “Relative IR-A affinity (@ 4.5% HSA) (%)” value in data set [3] is 0.10%.
With “A14E, B25H, B29K(N^ε—N-octadecandioyl-N-(2-carboxyethyl)glycyl), desB30 Human Insulin [Example 5]”, the “Relative hydrophobicity, k'relderiv” value in data set [1] is given as “.23”. For the same substance, in data set [2], the “Relative IR-A affinity (@ 0% HSA) (%)” value was found to be 2.5%.
As for “A14E, B25H, B29K(N^ε3-Carboxy-5-octadecanedioylaminobenzoyl), desB30 Human Insulin [Example 4]”, in data set [1], the “Relative hydrophobicity, k'relderiv” value was “.48”. Further, in data set [2], the “Relative IR-A affinity (@ 0% HSA) (%)” value is given as 3.4%.
Consider “A14E, B25H, B29K(N^ε4-([4-({19-Carboxynonadecanoylamino}methyl)trans-cyclohexane-carbonyl-]-γGlu-γGlu), desB30 Human Insulin [Example 12]”, for which the “Relative hydrophobicity, k'relderiv” value in data set [1] was “.94”. The “Relative IR-A affinity (@ 0% HSA) (%)” value in data set [2] is on record as 1.7%.
Regarding “A14E, B25H, B29K(N^εEicosanedioyl-Aoc), desB30 Human Insulin [Example 53]”, the “Relative IR-A affinity (@ 0% HSA) (%)” value in data set [2] worked out at 2.3%. In addition, the “Relative IR-A affinity (@ 4.5% HSA) (%)” value in data set [3] is listed as 0.03%.
Take “A14E, B25H, B29K(N^εeicosanedioyl-γGlu-(3-(2-{2-[2-(2-aminoethoxy)ethoxy]ethoxy}ethoxy)propionyl-γGlu), desB30 Human Insulin [Example 17]”: the “Relative hydrophobicity, k'relderiv” value in data set [1] is given as “.57”. Besides, the “Relative IR-A affinity (@ 0% HSA) (%)” value in data set [2] was “.9%”.
Consider “A14E, B25H, B29K(N^ε4-([4-({19-Carboxynonadecanoylamino}methyl)trans-cyclohexanecarbonyl]-γGlu), desB30 Human Insulin [Example 7]”, for which the “Relative hydrophobicity, k'relderiv” value in data set [1] is 2.78. Further, in data set [2], the “Relative IR-A affinity (@ 0% HSA) (%)” value came to 2.1%.
As for “A14E, B25H, B29K(N^εoctadecandioyl-γGlu-PEG7), desB30 Human Insulin [Example 15]”, the “Relative hydrophobicity, k'relderiv” value in data set [1] is “.43”. Also, the “Relative IR-A affinity (@ 0% HSA) (%)” value in data set [2] was 1.9%.

These data come from US10259856B2, “Protease stabilized acylated insulin analogues” (priority 2008, dated 2019).
